This is an account of results in PMC3832412 (PLoS ONE, 2013).

For assay [1], the system named is NMDAR in primary rat hippocampal neurons. It counts as cell-based, rat (Sprague-Dawley).
The subject of assay [2] is GluN2A subunit. As to conditions: ref [41], cited from earlier work.

Each structure is given as a SMILES string. “And” between values parts separate entries of the source, which are not always exact repeats. Identical values can stand only once. Like-named read-outs stand apart in the source and are kept apart here.

In the case of `CC(C(O)c1ccc(O)cc1)N1CCC(Cc2ccccc2)CC1` (stereo not shown) [ifenprodil], in assay [1], the “inhibition of iCa^2+ influx” value was 64%.

Turning to `C[C@H](NC(c1cccc2[nH]c(=O)c(=O)[nH]c12)P(=O)(O)O)c1ccc(Br)cc1` (stereo partly shown) [NVP-AAM007], in assay [1], the “inhibition of iCa^2+ influx” value is 46% and 64%. Also, the NMDAR subunit specificity entry in assay [2] (60 nM) is given as “specifically inhibits the GluN2A subunit”; in assay [2] (400 nM) it was “non-subunit specific”.
